# According to article PMC5218480 (PLoS ONE, 2017):
# Tested on: MV-4-11 cells
# Assay: Gene expression microarray analysis (Affymetrix PrimeView) and GSEA
# Type: cell-based, human
# Design: RFU PODN (11730768_x_at) / Fold change /veh PODN (11730768_x_at) / RFU LINC00158 (11744669_a_at) / Fold change /veh LINC00158 (11744669_a_at) / RFU DUSP10 (11751237_a_at) / Fold change /veh DUSP10 (11751237_a_at) / RFU ID3 (11757404_x_at) / Fold change /veh ID3 (11757404_x_at) / RFU PLEKHG5 (11737974_s_at) / Fold change /veh PLEKHG5 (11737974_s_at) / RFU LRRC4B (11730491_at) / Fold change /veh LRRC4B (11730491_at) / RFU GIMAP4 (11747438_a_at) / Fold change /veh GIMAP4 (11747438_a_at) / RFU KRT8 (11758183_x_at) / Fold change /veh KRT8 (11758183_x_at) / RFU CNN1 (11734310_a_at) / Fold change /veh CNN1 (11734310_a_at) / RFU VPS37D (11726825_at) / Fold change /veh VPS37D (11726825_at) / RFU C10orf10 (11716522_x_at) / Fold change /veh C10orf10 (11716522_x_at) / RFU KIR2DL2 /// KIR2DL4 /// KIR2DL5A /// KIR2DL5B /// KIR2DS1 /// KIR2DS2 /// KIR2DS3 /// KIR2DS4 /// KIR3DL3 /// KIR3DL3 /// KIR3DS1 (11738374_at) / Fold change /veh KIR2DL2 /// KIR2DL4 /// KIR2DL5A /// KIR2DL5B /// KIR2DS1 /// KIR2DS2 /// KIR2DS3 /// KIR2DS4 /// KIR3DL3 /// KIR3DL3 /// KIR3DS1 (11738374_at) / RFU C1QL1 (11718748_at) / Fold change /veh C1QL1 (11718748_at) / RFU TMPRSS4 (11747572_a_at) / Fold change /veh TMPRSS4 (11747572_a_at) / RFU HAMP (11756126_x_at) / Fold change /veh HAMP (11756126_x_at) / RFU RNFT2 (11725882_a_at) / Fold change /veh RNFT2 (11725882_a_at) / RFU NR4A2 (11747474_a_at) / Fold change /veh NR4A2 (11747474_a_at) / RFU ABCC12 (11746883_a_at) / Fold change /veh ABCC12 (11746883_a_at) / RFU TMEM136 (11760407_x_at) / Fold change /veh TMEM136 (11760407_x_at) / RFU CLDN22 /// WWC2 (11732394_at) / Fold change /veh CLDN22 /// WWC2 (11732394_at) / RFU HLA-DPB1 (11760878_x_at) / Fold change /veh HLA-DPB1 (11760878_x_at) / RFU SPINT1 (11716480_a_at) / Fold change /veh SPINT1 (11716480_a_at) / RFU GAP43 (11754022_s_at) / Fold change /veh GAP43 (11754022_s_at) / RFU A4GNT (11735810_at) / Fold change /veh A4GNT (11735810_at) / RFU PRB3 (11715151_x_at) / Fold change /veh PRB3 (11715151_x_at) / RFU TUBB4B (11761932_at) / Fold change /veh TUBB4B (11761932_at) / RFU CAPN14 (11732068_a_at) / Fold change /veh CAPN14 (11732068_a_at) / RFU TMCC2 (11721928_a_at) / Fold change /veh TMCC2 (11721928_a_at) / RFU IRGQ (11745062_a_at) / Fold change /veh IRGQ (11745062_a_at) / RFU FAM174B (11720279_a_at) / Fold change /veh FAM174B (11720279_a_at) / RFU TMPRSS4 (11748680_a_at) / Fold change /veh TMPRSS4 (11748680_a_at) / RFU FAM212B (11763350_a_at) / Fold change /veh FAM212B (11763350_a_at) / RFU PLEKHG5 (11743358_a_at) / Fold change /veh PLEKHG5 (11743358_a_at) / RFU ZSCAN30 (11745921_a_at) / Fold change /veh ZSCAN30 (11745921_a_at) / RFU CMKLR1 (11741424_a_at) / Fold change /veh CMKLR1 (11741424_a_at) / RFU LOC101060620 /// MAPK8IP1 (11723275_at) / Fold change /veh LOC101060620 /// MAPK8IP1 (11723275_at) / RFU SPTSSB (11747773_x_at) / Fold change /veh SPTSSB (11747773_x_at) / RFU PRSS12 (11739890_at) / Fold change /veh PRSS12 (11739890_at) / RFU BIN1 (11741810_x_at) / Fold change /veh BIN1 (11741810_x_at) / RFU WNT11 (11732464_a_at) / Fold change /veh WNT11 (11732464_a_at) / RFU C10orf10 (11716521_a_at) / Fold change /veh C10orf10 (11716521_a_at) / RFU C5orf56 (11738089_at) / Fold change /veh C5orf56 (11738089_at) / RFU CYB561 (11721691_x_at) / Fold change /veh CYB561 (11721691_x_at) / RFU ANKRD19P (11752326_a_at) / Fold change /veh ANKRD19P (11752326_a_at) / RFU OR2T12 /// OR2T33 /// OR2T8 (11738714_s_at) / Fold change /veh OR2T12 /// OR2T33 /// OR2T8 (11738714_s_at) / RFU VCAN (11748164_a_at) / Fold change /veh VCAN (11748164_a_at) / RFU JSRP1 (11732532_at) / Fold change /veh JSRP1 (11732532_at) / RFU KRTAP10-11 (11738290_x_at) / Fold change /veh KRTAP10-11 (11738290_x_at) / RFU MYO3A (11730013_a_at) / Fold change /veh MYO3A (11730013_a_at) / RFU EBF3 (11725865_a_at) / Fold change /veh EBF3 (11725865_a_at) / RFU CAMK2N1 (11719241_x_at) / Fold change /veh CAMK2N1 (11719241_x_at) / RFU C5orf56 (11738088_a_at) / Fold change /veh C5orf56 (11738088_a_at) / RFU OLFML3 (11715873_a_at) / Fold change /veh OLFML3 (11715873_a_at) / RFU LOC100653217 /// NTM (11731650_a_at) / Fold change /veh LOC100653217 /// NTM (11731650_a_at) / RFU MAPK11 (11762145_a_at) / Fold change /veh MAPK11 (11762145_a_at) / RFU FIZ1 (11724087_x_at) / Fold change /veh FIZ1 (11724087_x_at) / RFU OASL (11726364_x_at) / Fold change /veh OASL (11726364_x_at) / RFU SOX15 (11748057_x_at) / Fold change /veh SOX15 (11748057_x_at) / RFU CD79A (11719716_a_at) / Fold change /veh CD79A (11719716_a_at) / RFU HIST1H1D (11736915_at) / Fold change /veh HIST1H1D (11736915_at) / RFU CASKIN2 (11723855_a_at) / Fold change /veh CASKIN2 (11723855_a_at) / RFU LOC730098 (11760151_x_at) / Fold change /veh LOC730098 (11760151_x_at) / RFU OR4N2 (11742367_at) / Fold change /veh OR4N2 (11742367_at) / RFU PRRT2 (11749266_a_at) / Fold change /veh PRRT2 (11749266_a_at) / RFU SNX32 (11753110_a_at) / Fold change /veh SNX32 (11753110_a_at) / RFU CDHR5 (11726645_a_at) / Fold change /veh CDHR5 (11726645_a_at) / RFU RCAN1 (11760418_a_at) / Fold change /veh RCAN1 (11760418_a_at) / RFU FAM167A (11723789_a_at) / Fold change /veh FAM167A (11723789_a_at) / RFU FAM26E (11764081_at) / Fold change /veh FAM26E (11764081_at) / RFU ISYNA1 (11749810_s_at) / Fold change /veh ISYNA1 (11749810_s_at) / RFU ACY1 (11761880_at) / Fold change /veh ACY1 (11761880_at) / RFU 11764098_at / Fold change /veh 11764098_at / RFU SAMD14 (11745864_x_at) / Fold change /veh SAMD14 (11745864_x_at) / RFU NPB (11741838_a_at) / Fold change /veh NPB (11741838_a_at) / RFU TMPRSS6 (11731388_a_at) / Fold change /veh TMPRSS6 (11731388_a_at) / RFU KRTAP10-2 (11738614_at) / Fold change /veh KRTAP10-2 (11738614_at) / RFU ARHGAP8 /// PRR5-ARHGAP8 (11727945_x_at) / Fold change /veh ARHGAP8 /// PRR5-ARHGAP8 (11727945_x_at) / RFU KRTAP5-7 /// NADSYN1 (11734609_at) / Fold change /veh KRTAP5-7 /// NADSYN1 (11734609_at) / RFU RASL12 (11751679_a_at) / Fold change /veh RASL12 (11751679_a_at) / RFU CDKN2B (11736163_a_at) / Fold change /veh CDKN2B (11736163_a_at) / RFU PRF1 (11729649_at) / Fold change /veh PRF1 (11729649_at) / RFU, ZNF638 /// ZNF638-IT1 / Fold change vs veh, ZNF638 /// ZNF638-IT1 / RFU, PANK3 / Fold change vs veh, PANK3 / RFU, SH3YL1 / Fold change vs veh, SH3YL1 / RFU, ZEB2 / Fold change vs veh, ZEB2 / RFU, NRIP1 / Fold change vs veh, NRIP1 / RFU, PTTG1IP / Fold change vs veh, PTTG1IP / RFU, CAPN2 / Fold change vs veh, CAPN2 / RFU, MED14 / Fold change vs veh, MED14 / RFU, SNORA58 / Fold change vs veh, SNORA58 / RFU, C1orf63 / Fold change vs veh, C1orf63 / RFU, LRRFIP1 / Fold change vs veh, LRRFIP1 / RFU, NDUFAF7 / Fold change vs veh, NDUFAF7 / RFU, SLC12A2 / Fold change vs veh, SLC12A2 / RFU, IBTK / Fold change vs veh, IBTK / RFU, ESF1 / Fold change vs veh, ESF1 / Fold change vs veh, TMEM50B / RFU, TAOK1 / Fold change vs veh, TAOK1 / RFU, ACBD3 / Fold change vs veh, ACBD3 / RFU, TMA16 / Fold change vs veh, TMA16 / RFU, RWDD3 / Fold change vs veh, RWDD3 / RFU, BCAT1 / Fold change vs veh, BCAT1 / RFU, EDEM3 / Fold change vs veh, EDEM3 / RFU, TMEM33 / Fold change vs veh, TMEM33 / RFU, WDR75 / Fold change vs veh, WDR75 / RFU, AHCTF1 / Fold change vs veh, AHCTF1 / RFU, TFRC / Fold change vs veh, TFRC / RFU, ZDHHC17 / Fold change vs veh, ZDHHC17 / RFU, NOM1 / Fold change vs veh, NOM1 / RFU, ARL8B / Fold change vs veh, ARL8B / RFU, ZBTB11 / Fold change vs veh, ZBTB11 / RFU, TAMM41 / Fold change vs veh, TAMM41 / RFU, KIAA1704 /// LOC100996395 / Fold change vs veh, KIAA1704 /// LOC100996395 / RFU, ING1 / Fold change vs veh, ING1 / RFU, TRMT61B / Fold change vs veh, TRMT61B / RFU, FUBP3 / Fold change vs veh, FUBP3 / RFU, TP53 / Fold change vs veh, TP53 / RFU, TNKS2 / Fold change vs veh, TNKS2 / RFU, ZFP14 / Fold change vs veh, ZFP14 / RFU, ACTR2 / Fold change vs veh, ACTR2 / RFU, PPP3R1 / Fold change vs veh, PPP3R1 / RFU, PIK3R1 / Fold change vs veh, PIK3R1 / RFU, HNRNPA1 / Fold change vs veh, HNRNPA1 / RFU, RNF170 / Fold change vs veh, RNF170 / RFU, ZNF28 / Fold change vs veh, ZNF28 / RFU, RNGTT / Fold change vs veh, RNGTT / RFU, OGT / Fold change vs veh, OGT / RFU, BRD1 / Fold change vs veh, BRD1 / RFU, MARS / Fold change vs veh, MARS / RFU, ZNF655 / Fold change vs veh, ZNF655 / RFU, FAHD1 / Fold change vs veh, FAHD1 / RFU, BDP1 / Fold change vs veh, BDP1 / RFU, LRRCC1 / Fold change vs veh, LRRCC1 / RFU, ARID1A / Fold change vs veh, ARID1A / RFU, ZNF146 / Fold change vs veh, ZNF146 / RFU, ZNF330 / Fold change vs veh, ZNF330 / RFU, GPN3 / Fold change vs veh, GPN3 / RFU, C9orf123 / Fold change vs veh, C9orf123 / RFU, N4BP2L2 / Fold change vs veh, N4BP2L2 / RFU, ARFIP1 / Fold change vs veh, ARFIP1 / RFU, FAM179B / Fold change vs veh, FAM179B / RFU, BCL10 / Fold change vs veh, BCL10 / RFU, UHRF1BP1L / Fold change vs veh, UHRF1BP1L / RFU, BET1 / Fold change vs veh, BET1 / RFU, CNOT2 / Fold change vs veh, CNOT2 / RFU, ZNF268 / Fold change vs veh, ZNF268 / Fold change vs veh, ZNF507 / RFU, DGCR2 / Fold change vs veh, DGCR2 / RFU, WDSUB1 / Fold change vs veh, WDSUB1 / Fold change vs veh, HSP90B1 /// MIR3652 / RFU, ADSS / Fold change vs veh, ADSS / RFU, GK / Fold change vs veh, GK / RFU, ZNF148 / Fold change vs veh, ZNF148 / RFU, TAF9 / Fold change vs veh, TAF9 / RFU, SLC1A5 / Fold change vs veh, SLC1A5 / RFU, SLMO2 / Fold change vs veh, SLMO2 / RFU, ABCC4 / Fold change vs veh, ABCC4 / RFU, LOC101060439 /// RAP1B / Fold change vs veh, LOC101060439 /// RAP1B / RFU, RFX7 / Fold change vs veh, RFX7 / RFU, GTPBP10 / Fold change vs veh, GTPBP10 / RFU, CNEP1R1 / Fold change vs veh, CNEP1R1 / RFU, BIVM-ERCC5 /// ERCC5 / Fold change vs veh, BIVM-ERCC5 /// ERCC5 / RFU, ILF3 / Fold change vs veh, ILF3 / RFU 11762660_at / Fold change /veh 11762660_at / RFU VCAN (11757783_s_at) / Fold change /veh VCAN (11757783_s_at) / RFU DDX43 (11728927_at) / Fold change /veh DDX43 (11728927_at) / RFU KRT8 (11758188_x_at) / Fold change /veh KRT8 (11758188_x_at) / RFU NKD1 (11759106_at) / Fold change /veh NKD1 (11759106_at) / RFU SRD5A1 (11742802_a_at) / Fold change /veh SRD5A1 (11742802_a_at) / RFU TPSAB1 /// TPSB2 (11721975_s_at) / Fold change /veh TPSAB1 /// TPSB2 (11721975_s_at) / RFU GSTM3 (11746129_a_at) / Fold change /veh GSTM3 (11746129_a_at) / RFU IL23R (11737362_x_at) / Fold change /veh IL23R (11737362_x_at) / RFU TMEM51 (11727254_a_at) / Fold change /veh TMEM51 (11727254_a_at) / RFU PIWIL2 (11732686_x_at) / Fold change /veh PIWIL2 (11732686_x_at) / RFU ORM1 (11744905_x_at) / Fold change /veh ORM1 (11744905_x_at) / RFU CCDC152 (11743942_at) / Fold change /veh CCDC152 (11743942_at) / RFU ECM1 (11717891_a_at) / Fold change /veh ECM1 (11717891_a_at) / RFU IL23R (11748794_a_at) / Fold change /veh IL23R (11748794_a_at) / RFU TNFAIP8L3 (11732012_x_at) / Fold change /veh TNFAIP8L3 (11732012_x_at) / RFU MBOAT4 (11741988_at) / Fold change /veh MBOAT4 (11741988_at) / RFU 11764193_at / Fold change /veh 11764193_at / RFU TMEM53 (11763286_at) / Fold change /veh TMEM53 (11763286_at) / RFU MAGEB2 (11727129_at) / Fold change /veh MAGEB2 (11727129_at) / RFU TMEM200A (11744735_a_at) / Fold change /veh TMEM200A (11744735_a_at) / RFU CCDC152 (11751479_a_at) / Fold change /veh CCDC152 (11751479_a_at) / RFU FAM211A (11726209_a_at) / Fold change /veh FAM211A (11726209_a_at) / RFU RGS16 (11746705_a_at) / Fold change /veh RGS16 (11746705_a_at) / RFU VCAN (11755009_s_at) / Fold change /veh VCAN (11755009_s_at) / RFU RHOB (11743442_s_at) / Fold change /veh RHOB (11743442_s_at) / RFU RGS16 (11720943_a_at) / Fold change /veh RGS16 (11720943_a_at) / RFU RGS16 (11720944_at) / Fold change /veh RGS16 (11720944_at) / RFU, VPS4B / Fold change vs veh, VPS4B / RFU, CREB1 / Fold change vs veh, CREB1 / RFU, DNAJC13 / Fold change vs veh, DNAJC13 / RFU, GNAQ / Fold change vs veh, GNAQ / RFU, CDK5R1 / Fold change vs veh, CDK5R1 / RFU, ZRANB3 / Fold change vs veh, ZRANB3 / RFU, CUL4A / Fold change vs veh, CUL4A / RFU, CCNY / Fold change vs veh, CCNY / RFU, UFL1 / Fold change vs veh, UFL1 / RFU, COG3 / Fold change vs veh, COG3 / RFU, DIAPH2 / Fold change vs veh, DIAPH2 / RFU, SKA2 / Fold change vs veh, SKA2 / RFU, AFF3 / Fold change vs veh, AFF3 / RFU, LMF1 / Fold change vs veh, LMF1 / RFU, IPO11 / Fold change vs veh, IPO11 / RFU, DFFB / Fold change vs veh, DFFB / RFU, FOXP1 / Fold change vs veh, FOXP1 / RFU, CARD8 / Fold change vs veh, CARD8 / RFU, STRN3 / Fold change vs veh, STRN3 / RFU, ADK / Fold change vs veh, ADK / RFU, RASSF2 / Fold change vs veh, RASSF2 / RFU, WIPF1 / Fold change vs veh, WIPF1 / RFU, LARP1B / Fold change vs veh, LARP1B / RFU, RASA1 / Fold change vs veh, RASA1 / RFU, RB1 / Fold change vs veh, RB1 / RFU, PPFIA1 / Fold change vs veh, PPFIA1 / RFU, MAT2A / Fold change vs veh, MAT2A / RFU, CCT5 / Fold change vs veh, CCT5 / RFU, WDR92 / Fold change vs veh, WDR92 / RFU, CUX1 / Fold change vs veh, CUX1 / RFU, TTC7A / Fold change vs veh, TTC7A / RFU, TMEM135 / Fold change vs veh, TMEM135 / RFU, DEPTOR / Fold change vs veh, DEPTOR / RFU, CPM / Fold change vs veh, CPM / RFU, DNAJB6 / Fold change vs veh, DNAJB6 / RFU, CACNA2D3 / Fold change vs veh, CACNA2D3 / RFU, DTX4 / Fold change vs veh, DTX4 / RFU, TFCP2 / Fold change vs veh, TFCP2 / RFU, GMCL1 /// GMCL1P1 / Fold change vs veh, GMCL1 /// GMCL1P1 / RFU, AEBP2 / Fold change vs veh, AEBP2 / RFU, SNHG1 /// SNORD22 /// SNORD25 /// SNORD26 /// SNORD27 /// SNORD28 /// SNORD29 /// SNORD31 / Fold change vs veh, SNHG1 /// SNORD22 /// SNORD25 /// SNORD26 /// SNORD27 /// SNORD28 /// SNORD29 /// SNORD31 / Fold change (Aza/veh), C12orf56 (ProbeSet 11735607_a_at) / Fold change (ACY-1035/veh), C12orf56 (ProbeSet 11735607_a_at) / Fold change (Aza/veh), FGFR1OP (ProbeSet 11751329_s_at) / Fold change (ACY-1035/veh), FGFR1OP (ProbeSet 11751329_s_at) / Fold change (Aza/veh), VPS36 (ProbeSet 11739960_a_at) / Fold change (ACY-1035/veh), VPS36 (ProbeSet 11739960_a_at) / RFU SYPL1 (11715823_x_at) / Fold change /veh SYPL1 (11715823_x_at) / RFU IGFBP7 (11715501_s_at) / Fold change /veh IGFBP7 (11715501_s_at) / RFU REEP3 (11722064_at) / Fold change /veh REEP3 (11722064_at) / RFU IGLL1 (11728026_x_at) / Fold change /veh IGLL1 (11728026_x_at): dose or concentration left out as unconfirmed
# Details: MV-4-11 cells, 48 hours
smiles,measurement,value
Nc1ncn([C@@H]2O[C@H](CO)[C@@H](O)[C@H]2O)c(=O)n1 [azacitidine],RFU FIZ1 (11724087_x_at),32.14 RFU
